# Data: US20180207228A1, “PEPTIDE COMBINATIONS AND USES THEREOF FOR TREATING GRASS ALLERGY” (ALK-Abelló A/S, priority 2015, published 2018)
# Where no end group is shown, it is not given here.
# Key:
# [1] = system: grass allergic donor derived T cell lines (TCL-02 DK-2); test: Cross-reactivity of homologue peptides, proliferation on TCL02-DK2 (Study XR1); assay type: cell-based, human; conditions: 2 μg/ml, TCL02-DK2, 21 donors
# Protocol: To measure the experimental cross-reactivity the proliferation assay of Example 3 was carried out on 21 grass allergic donors (TCL02-DK2). […] Cross-reactivity to Phleum pratense peptides with either close (Lolium perenne (Lol p)) or distant (Phalaris aquatica (Pha a), Cynodon dactylon (Cyn d)) species was experimentally investigated.
# For analysing the cross-reactivity data, it was investigated if a donor responds to both native and homologue peptide, XY correlation plots were made where the donor responses to native peptides were plotted versus the donor responses to homologues. […] If less than five donors were responding to the parent peptides, then the data was considered to be in-conclusive, and were thus labelled with “-”. For some of the peptides the analysis was further supported by performing a Spearman r-Non Parametric test (data not shown).
# Further the magnitude of T cell response from a parent peptide as defined herein and homologue response were plotted in a XY plot by using GraphPad Prism 6.
# To measure the experimental cross-reactivity, the proliferation assay of Example 3 was carried out on 21 grass pollen allergic donors (TCL02-DK2, Study XR1) and 20 grass pollen allergic donors (TCL03−DK1+DK2, Study XR2). […] In Study XR1, Cross-reactivity to Phleum pratense peptides with either close (Lolium perenne-Lol p) or distant ([…]-Pha a, Cynodon dactylon-Cyn d) species was experimentally investigated. In Study XR1, 67 homologue peptides corresponding to 41 native Phleum pratense peptides were investigated together with the 41 Phleum pratense peptides at a concentration of 2 μg/ml. Similarly, study XR2 was carried out on 20 grass pollen allergic donors where donor derived TCL-03 lines were used to investigate Phleum pratense cross-reactivity to Poa pratensis (Poa p), Dactylis glomerata (Dac g), Festuca pratensis (Fes p), Paspalum notatum (Pas n), Sorghum halepense (Sor h), Lolium perenne (Lol p), Phalaris aquatica (Pha a) and Cynodon dactylon (Cyn d).
# [2] = Peptide solubility by visual inspection; assay type: physicochemical; conditions: for Visual inspection: first solubility screening, TFA salts, 1-7 mg/mL solutions in DMSO; for Visual inspection after 60 min pH 7 / Visual inspection after centrifugation pH 7: 250 mM D-Mannitol and 25 mM sodium phosphate
# Protocol: Water (pH 3-5) • 2. 250 mM D-Mannitol and 25 mM sodium acetate, pH 4.5 • 3. 250 mM D-Mannitol and 25 mM sodium phosphate, pH 7.0 • 4. […] Water (pH 3-5) • 2. 250 mM D-Mannitol and 25 mM sodium acetate, pH 4.5 • 3. 250 mM D-Mannitol and 25 mM sodium phosphate, pH 7.0 • 4. […] A subset of the peptides was selected as candidate peptides for a final peptide mixture. […] During the solubility studies the peptide-containing solutions were inspected visually before and after filtration for turbidity, and presence of particles/aggregates. In addition, presence of turbidity/particles/aggregates was also detected by optical density (OD) or absorbance of filtered material, but might also be detected by size-exclusion chromatography. Furthermore, Sub-visual particles may also be detected by dynamic light scattering (DLS) analysis on filtered and non-filtered peptide containing solutions. Samples were furthermore subjected to centrifugation to allow for the possible visual inspection of pelleted material.
# [3] = system: allergen specific T cells; test: T cell proliferation assay (72 h) on donor derived T cell lines (TCL02/TCL03); assay type: cell-based, human; conditions: single peptide
# In short: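 Overlapping 20-mer and selected 15-mer grass allergen peptides were screened for proliferation using TCL02 (day 24) or TCL03 (day 34) lines. Lines came from grass-allergic donors' CD8-depleted PBMCs, primed with natural allergen mix and expanded with irradiated autologous or allogeneic APCs, PHA-P 0.5 μg/ml and rIL-2.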
# [4] = system: grass pollen allergic donor derived TCL-03 lines; test: Extended cross-reactivity study, proliferation on TCL03 DK1+DK2 (Study XR2), scoring; assay type: cell-based, human; conditions: study XR2; for Cross-reactivity score, Cyn d: homologue from Cyn d; for Cross-reactivity score, Dac g: homologue from Dac g; for Cross-reactivity score, Fes p: homologue from Fes p; for Cross-reactivity score, Lol p: homologue from Lol p; for Cross-reactivity score, Pas n: homologue from Pas n; for Cross-reactivity score, Pha a: homologue from Pha a; for Cross-reactivity score, Poa p: homologue from Poa p; for Cross-reactivity sum: scores of all species added; for Cross-reactivity/species: sum divided by the number of species measured
# [5] = Extended solubility and short term stability study (visual, U-HPLC recovery, DLS, 90LS, UV-VIS, sum of scores); conditions: for solubility: pH 4.5
# Protocol: For that purpose, the peptides were provided as acetate salts (produced by Innovagen® at a >10 mg scale of manufacturing). To take into account batch-to-batch variations, some peptides were tested from other batches of the manufacturer Innovagen®, as well as from another manufacturer (Almac) and from in-house production. Solubility experiments were performed on peptide in solution in concentrations ranging from 0.5 mg/mL to 3 mg/mL (dry matter)—with the following solvents: • Water • Acetate buffer, pH 4.5 (25 mM sodium acetate containing 250 mM D-Mannitol) • Phosphate buffer, pH 7.0 (25 mM sodium phosphate containing 250 mM D-Mannitol) • Glycine buffer, pH 8.5 (25 mM glycine containing 250 mM D-Mannitol)
# The solubility of the peptides was initially investigated by visual inspection and U-HPLC recovery. Visual inspection included assessment of turbidity and presence of particles/aggregates of each peptide solution before and after centrifugation as well as visual inspection of pelleted material. The visual inspection were reported as “clear solution”, “very small precipitation only visible with a magnifier”, “precipitation visible/turbid solution” or “more precipitation/turbid solution”. Filtration of peptide solutions were conducted using syringe based filters containing a polyethersulfone (PES) membrane chemistry and a pore size of 0.2 μm. The amount of the peptide in the supernatant of a filtered sample was determined using U-HPLC with reverse phase chromatography and recovery were determined as described in Example 5.
# Peptide solutions were investigated at a time point of 1 hour after production, but were also repeated at later time point (e.g. 24. 48 or 96 hours) to investigate the stability of the peptides.
# Peptide solutions were investigated to determine the presence of turbidity/particles/aggregates by use of optical density (OD) and change in UV-VIS absorbance at a wavelength of 320 nm, of the filtrate. […] In addition or as an alternative, the amount of the peptide in the supernatant of a filtered sample was determined using U-HPLC as described above, with the exception that the recovery was determined by dividing the peak area of the filtered sample in relation to the peak area in the original solution prior to filtration. See also Example 5 for further details regarding UV-VIS, and recovery measured by U-HPLC.
# The peptides were scored in relation to the outcome of the above mentioned tests: For each peptide in a given buffer and at a given concentration, a sum of test scores was calculated and the sum used to rank the peptides according to solubility: • 1. […] DLS peak 1 number 3 nm gave a score of 1, 3-10 nm gave a score of 2, 10-100 nm gave a score of 3, >100 nm gave a score of 4. • 5. 90LS at 400 nm: Intensity <450 gave a score of 1, <800 gave a score of 2, >800 gave a score of 3. • 6. UV-VIS change in absorbance at 320 nm within 24 hours: 0.01 gave a score of 1, ≤0.05 gave a score of 2, 0.0.2 gave a score of 3 and >0.2 gave a score of 4.
# [6] = 3 mg/mL, acetate salt, non-filtered
# [7] = 3 mg/mL, acetate salt, non-filtered, after centrifugation
compound,measurement,setting,value
CC[C@H](C)[C@H](NC(=O)[C@@H](NC(=O)[C@H](CC(=O)O)NC(=O)[C@H](CCC(=O)O)NC(=O)[C@H](C)NC(=O)[C@H](CCC(=O)O)NC(=O)[C@@H](N)[C@@H](C)O)C(C)C)C(=O)N1CCC[C@H]1C(=O)N[C@@H](CCC(=O)O)C(=O)NCC(=O)N[C@@H](Cc1c[nH]c2ccccc12)C(=O)N[C@@H](CCCCN)C(=O)N[C@@H](C)C(=O)N[C@@H](CC(=O)O)C(=O)N[C@H](C(=O)N[C@@H](CO)C(=O)N[C@@H](Cc1ccc(O)cc1)C(=O)N[C@@H](CCC(=O)O)C(=O)N[C@@H](CO)C(=O)N[C@@H](CCCCN)C(=O)O)[C@@H](C)O [peptide 213],experimental cross-reactivity,[1],showed cross-reactivity
AEVELRQHGSEEWEPLTKKG-OH [compound 063],Visual inspection,[2],+
AGELELQFRRVKSKYPEGTK-OH [peptide 207],T cell response in % of the donors tested,[3],~40%
same,solubility in aqueous solutions,[2],surprisingly good solubility in aqueous solutions
same,"solubility, 1st round of solubility screening",[2],soluble
same,Visual inspection after 60 min pH 7,[2]; [6],tread +
same,Visual inspection after centrifugation pH 7,[2]; [7],+
same,"Cross-reactivity score, Cyn d",[4]; score 0 to 7,0
same,"Cross-reactivity score, Dac g",[4]; score 0 to 7,3
same,"Cross-reactivity score, Fes p",[4]; score 0 to 7,6
same,"Cross-reactivity score, Lol p",[4]; score 0 to 7,6
same,"Cross-reactivity score, Pas n",[4]; score 0 to 7,0.5
same,"Cross-reactivity score, Pha a",[4]; score 0 to 7,6
same,"Cross-reactivity score, Poa p",[4]; score 0 to 7,1
same,Cross-reactivity sum,[4],22.5
same,Cross-reactivity/species,[4],3.2
same,"solubility in all the test samples (concentrations and pH tested), all solubility tests",[5],good solubility
same,solubility in aqueous solutions and short-term stability,[5],sufficiently soluble
same,solubility,[5],acceptable solubility
AGYTPAAPAGAEPAGKATTE-OH [peptide 228],solubility in aqueous solutions and short-term stability,[5],sufficiently soluble
same,solubility,[5],acceptable solubility
Ac-STGGAYESYKFIPALEAAVK-NH2 [compound 262],solubility by ranking scheme based on a sum of scores,[5],good solubility
same,solubility in aqueous solutions and short-term stability,[5],sufficiently soluble
Ac-STGGAYESYKFIPALEAAVK-OH [compound 260],solubility by ranking scheme based on a sum of scores,[5],good solubility
same,solubility in aqueous solutions and short-term stability,[5],sufficiently soluble
GDEQKLRSAGELELQFRRVK-OH [compound 206],"solubility, 1st round of solubility screening",[2],soluble
same,"Cross-reactivity score, Cyn d",[4]; score 0 to 7,0
same,"Cross-reactivity score, Dac g",[4]; score 0 to 7,2
same,"Cross-reactivity score, Fes p",[4]; score 0 to 7,2
same,"Cross-reactivity score, Lol p",[4]; score 0 to 7,2
same,"Cross-reactivity score, Pas n",[4]; score 0 to 7,0
same,"Cross-reactivity score, Pha a",[4]; score 0 to 7,1
same,"Cross-reactivity score, Poa p",[4]; score 0 to 7,0.5
same,"Cross-reactivity score, Sor h","[4]; homologue from Sor h, score 0 to 7",0.5
same,Cross-reactivity sum,[4],8
same,Cross-reactivity/species,[4],1
same,"solubility in all the test samples (concentrations and pH tested), all solubility tests",[5],good solubility
same,solubility in aqueous solutions and short-term stability,[5],sufficiently soluble
same,solubility,[5],acceptable solubility
GGASGYKDVDKPPFSGMTGS-OH [compound 006],Visual inspection,[2],+
KEDFLGSLVKEIPPRLLYAK-OH [peptide 222],"solubility, 1st round of solubility screening",[2],soluble
same,Visual inspection after 60 min pH 4.5,"[2]; 3 mg/mL, acetate salt, non-filtered, 250 mM D-Mannitol and 25 mM sodium acetate, pH 4.5","+ particles,"
same,Visual inspection after centrifugation pH 4.5,"[2]; 3 mg/mL, acetate salt, non-filtered, 250 mM D-Mannitol and 25 mM sodium acetate, pH 4.5, after centrifugation",++
same,Visual inspection after 60 min pH 7,[2]; [6],tread +
same,Visual inspection after centrifugation pH 7,[2]; [7],++
same,"Cross-reactivity score, Cyn d",[4]; score 0 to 7,1
same,Cross-reactivity sum,[4],1
same,Cross-reactivity/species,[4],1
same,solubility in aqueous solutions and short-term stability,[5],sufficiently soluble
same,solubility,[5],acceptable solubility
SMGDDHFWAVRGGGGESFGI-OH [peptide 226],"solubility, 1st round of solubility screening",[2],soluble
same,solubility in aqueous solutions and short-term stability,[5],sufficiently soluble
same,solubility,[5],acceptable solubility
STGGAYESYKFIPALEAAVK-NH2 [compound 261],solubility by ranking scheme based on a sum of scores,[5],good solubility
same,solubility in aqueous solutions and short-term stability,[5],sufficiently soluble
TPDKLTGPFTVRYTTEGGTK-OH [compound 024],Visual inspection,[2],++
VRYTTEGGTKTEAEDVIPEG-OH [peptide 212],"solubility, 1st round of solubility screening",[2],soluble
same,solubility in aqueous solutions and short-term stability,[5],sufficiently soluble
same,solubility,[5],acceptable solubility
VVAVDIKEKGKDKWIELKES-OH [compound 021],Visual inspection,[2],++
WLDAKSTWYGKPTGAGPKDN-OH [peptide 201],"solubility, 1st round of solubility screening",[2],soluble
same,solubility in aqueous solutions and short-term stability,[5],sufficiently soluble
same,solubility,[5],acceptable solubility
